Experimental data: patent US5663149A, “Human cancer inhibitory pentapeptide heterocyclic and halophenyl amides” (priority 1994, dated 1997)

Tests used:
OVCAR-3 (Ovarian) = test: NCI human tumor cell line growth inhibition, OVCAR-3; assay type: cell-based; details: Ovarian OVCAR-3, 48 hours
Procedure: (§1) The only difference is historical usage.
(§2) Percent Growths are calculated for each dose.
(§3) This is the "baseline count", or "Tzero reading".

SF-295 (CNS) = test: NCI human tumor cell line growth inhibition, SF-295; assay type: cell-based; details: CNS SF-295, 48 hours
Procedure: as §1, §2, §3

NCI-H460 (Lung-NSC) = test: NCI human tumor cell line growth inhibition, NCI-H460; assay type: cell-based; details: Lung-NSC NCI-H460, 48 hours
Procedure: as §1, §2, §3

KM20L2 (Colon) = test: NCI human tumor cell line growth inhibition, KM20L2; assay type: cell-based; details: Colon KM20L2, 48 hours
Procedure: as §1, §2, §3

SK-MEL-5 (Melanoma) = test: NCI human tumor cell line growth inhibition, SK-MEL-5; assay type: cell-based; details: Melanoma SK-MEL-5, 48 hours
Procedure: as §1, §2, §3

PS-388 (Mouse Leukemia) = test: P-388 mouse leukemia cell growth inhibition; assay type: cell-based; details: Mouse Leukemia PS-388
Procedure: as §1, §2, §3

A498 (Renal) = details: Renal A498, 48 hours;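 also: NCI protocol, compound given at five doses from 0.01 to 100 µg/ml, percent growth versus untreated controls relative to cell count at time zero, regression on log dose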
From the text: The following measures are used to express drug activity by giving the drug dose which reduces cell growth to a specified percentage of growth:
There is no mathematical difference between ED50 and GI50, which are both calculated using the same formula. The only difference is historical usage.
TGI, (Total Growth Inhibition), is the drug dose needed to yield zero percent growth, i.e., just as many cells at the end of the experiment as were present in the beginning. Whether just as many cells were killed as were produced (steady state), or no growth occurred (total inhibition), cannot be distinguished.
Each drug is tested at five (5) doses: 100-10-1-0.1-0.01 μg/ml. Percent Growths are calculated for each dose. […] The log of the dose is used during the regression computation.
At the start of an experiment, cells from the in vitro cell cultures are inoculated into the appropriate tubes or microtiter plates. One set of control tubes/plates is immediately counted to determine the number of cells at the start of the experiment. This is the "baseline count", or "Tzero reading". At the end of the experiment (48 hours later) a second set of control tubes/plates is analyzed to determine the "Control Growth" value. The growth (or death) of cells relative to the initial quantity of cells is used to define the "Percent of Growth".

| Substance | GI-50 (OVCAR-3 (Ovarian)) [µg/mL] | TGI (OVCAR-3 (Ovarian)) [ng/mL] | GI-50 (SF-295 (CNS)) [µg/mL] | TGI (SF-295 (CNS)) [ng/mL] | GI-50 (NCI-H460 (Lung-NSC)) [µg/mL] | TGI (NCI-H460 (Lung-NSC)) [ng/mL] | GI-50 (KM20L2 (Colon)) [µg/mL] | TGI (KM20L2 (Colon)) [ng/mL] | GI-50 (SK-MEL-5 (Melanoma)) [µg/mL] | TGI (SK-MEL-5 (Melanoma)) [ng/mL] | ED-50 (PS-388 (Mouse Leukemia)) [µg/mL] | GI-50 (A498 (Renal)) [µg/mL] | TGI (A498 (Renal)) [ng/mL] | LC-50 (OVCAR-3 (Ovarian)) [µg/mL] | LC-50 (SF-295 (CNS)) [µg/mL] | LC-50 (NCI-H460 (Lung-NSC)) [µg/mL] | LC-50 (KM20L2 (Colon)) [µg/mL] | LC-50 (SK-MEL-5 (Melanoma)) [µg/mL] | LC-50 (A498 (Renal)) [µg/mL] |
| --- | --- | --- | --- | --- | --- | --- | --- | --- | --- | --- | --- | --- | --- | --- | --- | --- | --- | --- | --- |
| L-Dolavalyl-L-Valyl-N-Methyl-(S,S,R)-Dolaisoleuinyl-(S,R,R)-Dolaproinyl-L- (p-Chloro)phenylalanine N-2-(6-Chloro)benzothiazole Amide [9l] | 0.000018 | 0.071 | 0.000036 | > 0.1 | 0.000043 | > 0.1 | 0.000031 | 0.096 | 0.0000061 | > 0.1 | 0.000458 | 0.000059 | > 0.1 | – | – | – | – | – | – |
| L-Dolavalyl-L-Valyl-N-Methyl-(S,S,R)-Dolaisoleuinyl-(S,R,R)-Dolaproinyl-L- Isoleucine N-3-Quinoline Amide [9s] | 0.000018 | 0.079 | 0.000028 | > 0.1 | 0.000027 | > 0.1 | 0.00003 | > 0.1 | 0.0000039 | > 0.1 | 0.00352 | 0.000065 | > 0.1 | > 0.0001 | > 0.0001 | > 0.0001 | > 0.0001 | > 0.0001 | > 0.0001 |
| L-Dolavalyl-L-Valyl-N-Methyl-(S,S,R)-Dolaisoleuinyl-(S,R,R)-Dolaproinyl-L- Methionine N-1-(2-p-Chlorophenylethyl) Amide [9i] | 0.000017 | 0.072 | 0.000026 | > 1 | 0.0000032 | 0.011 | 0.0000048 | 0.13 | 0.0000012 | 0.43 | 0.000111 | 0.000067 | > 1 | > 0.001 | > 0.001 | > 0.001 | > 0.001 | > 0.001 | > 0.001 |
| L-Dolavalyl-L-Valyl-N-Methyl-(S,S,R)-Dolaisoleuinyl-(S,R,R)-Dolaproinyl-L- Methionine N-2,5-Dichlorophenyl Amide [9g] | 0.00014 | 0.51 | 0.00013 | > 1 | 0.00017 | 0.66 | 0.00015 | 0.61 | 0.000062 | 0.65 | 0.000125 | 0.00036 | > 1 | > 0.001 | > 0.001 | > 0.001 | > 0.001 | > 0.001 | > 0.001 |
| L-Dolavalyl-L-Valyl-N-Methyl-(S,S,R)-Dolaisoleuinyl-(S,R,R)-Dolaproinyl-L- Methionine N-2-Benzothiazole Amide [9m] | 0.0000016 | 0.011 | 0.000022 | > 0.1 | 0.000011 | 0.08 | 0.0000041 | > 0.1 | 0.0000024 | > 0.1 | 0.000243 | 0.000016 | > 0.1 | – | – | – | – | – | – |
| L-Dolavalyl-L-Valyl-N-Methyl-(S,S,R)-Dolaisoleuinyl-(S,R,R)-Dolaproinyl-L- Methionine N-2-Chlorophenyl Amide [9b] | 0.000028 | 0.091 | 0.000036 | > 1 | 0.000031 | 0.11 | 0.000034 | 0.18 | 0.00002 | > 1 | 0.000211 | 0.000073 | > 1 | > 0.001 | > 0.001 | > 0.001 | > 0.001 | > 0.001 | > 0.001 |
| L-Dolavalyl-L-Valyl-N-Methyl-(S,S,R)-Dolaisoleuinyl-(S,R,R)-Dolaproinyl-L- Methionine N-2-Pyridyl Amide [9o] | 0.000032 | 0.22 | 0.00016 | > 1 | 0.00012 | 0.59 | 0.000033 | 0.31 | 0.000016 | 0.6 | 0.000262 | 0.00023 | > 1 | > 0.001 | > 0.001 | > 0.001 | > 0.001 | > 0.001 | > 0.001 |
| L-Dolavalyl-L-Valyl-N-Methyl-(S,S,R)-Dolaisoleuinyl-(S,R,R)-Dolaproinyl-L- Methionine N-3-Chlorophenyl Amide [9c] | 0.000011 | 0.1 | 0.000031 | > 1 | 0.000025 | 0.11 | 0.000023 | 0.1 | 0.0000013 | 0.26 | 0.00000264 | 0.000084 | > 1 | > 0.001 | > 0.001 | > 0.001 | > 0.001 | > 0.001 | > 0.001 |
| L-Dolavalyl-L-Valyl-N-Methyl-(S,S,R)-Dolaisoleuinyl-(S,R,R)-Dolaproinyl-L- Methionine N-3-Quinoline Amide [9p] | 0.00000032 | 0.01 | 0.000004 | > 0.1 | 0.0000031 | 0.017 | 0.00000065 | > 0.1 | 0.00000038 | > 0.1 | 0.000356 | 0.000008 | > 0.1 | > 0.0001 | > 0.0001 | > 0.0001 | > 0.0001 | > 0.0001 | > 0.0001 |
| L-Dolavalyl-L-Valyl-N-Methyl-(S,S,R)-Dolaisoleuinyl-(S,R,R)-Dolaproinyl-L- Methionine N-4-Chlorophenyl Amide [9e] | 0.00000045 | 0.0042 | 0.0000023 | > 0.01 | 0.0000022 | 0.0085 | 0.00000084 | 0.0051 | 0.00000033 | > 0.01 | 0.000603 | 0.0000035 | > 0.01 | > 0.00001 | > 0.00001 | > 0.00001 | > 0.00001 | > 0.00001 | > 0.00001 |
| L-Dolavalyl-L-Valyl-N-Methyl-(S,S,R)-Dolaisoleuinyl-(S,R,R)-Dolaproinyl-L- Methionine N-4-Fluorophenyl Amide [9a] | 0.000049 | 0.33 | 0.0001 | > 1 | 0.000089 | 0.66 | 0.00005 | 0.39 | 0.000038 | 0.57 | 0.000317 | 0.00025 | > 1 | > 0.001 | > 0.001 | > 0.001 | > 0.001 | > 0.001 | > 0.001 |
